One assay addresses T1, HTLV-1 myr(−)MA (Human T-cell leukemia virus type I, UniProt Q9QR99). The assay can be described thus: 1H-15N HSQC NMR titration. The assay is classed as binding.
In turn, `O=P(O)(O)O[C@@H]1[C@H](O)[C@H](O)[C@@H](OP(=O)(O)O)[C@H](OP(=O)(O)O)[C@H]1O` [IP3, inositol 1,4,5-trisphosphate] came in with a dissociation constant Kd of 338 ± 42 µM. The same measure, in the same setting: to `O=P(O)(O)O[C@H]1[C@H](OP(=O)(O)O)[C@@H](OP(=O)(O)O)[C@H](OP(=O)(O)O)[C@@H](OP(=O)(O)O)[C@H]1OP(=O)(O)O` [IP6, inositol hexakisphosphate] belongs 23 ± 11 µM; to `CCCC(=O)OC[C@H](COP(=O)(O)O[C@@H]1[C@H](O)[C@H](O)[C@@H](OP(=O)(O)O)[C@H](OP(=O)(O)O)[C@H]1O)OC(=O)CCC` [diC4-PI(4,5)P2], 306 ± 30 µM; to `CCCCCC(=O)OC[C@H](COP(=O)(O)O[C@@H]1[C@H](O)[C@H](O)[C@@H](OP(=O)(O)O)[C@H](OP(=O)(O)O)[C@H]1O)OC(=O)CCCCC` [diC6-PI(4,5)P2], 195 ± 19 µM.

For the next assay, the target named is T1, HTLV-1 myr(−)MA. The assay can be described thus: 1H NMR liposome. The class given is binding.
Molecule `CCCCCCCC/C=C\CCCCCCCC(=O)O[C@H](COC(=O)CCCCCCCCCCCCCCC)COP(=O)(O)OC[C@H](N)C(=O)O` [POPS, 1-palmitoyl-2-oleoyl-sn-glycero-3-phospho-L-serine] yielded a Kd of 118 ± 16 µM. `CCCCCCCCCCCCCCCC(=O)OC[C@H](COP(=O)(O)O[C@@H]1[C@H](O)[C@H](OP(=O)(O)O)[C@@H](O)[C@H](OP(=O)(O)O)[C@H]1O)OC(=O)CCCCCCCCCCCCCCC` [diC16-PI(3,5)P2, dipalmitoyl-phosphatidylinositol 3,5-bisphosphate] yielded a Kd of 32 ± 2 µM.

Values taken from PMC8453114 (Journal of molecular biology, 2021).
